Experimental data reported in patent US8080529B2, “Macrolides with anti-inflammatory activity” (Glaxo Group Limited, priority 2005, dated 2011).
Where two headings read alike, the source gives them in different places.

Experiments:
Format in all cases: cell-based
IL-6 = assay: Inhibition of IL-6 production by stimulated human peripheral blood leukocytes in vitro; conditions: Homo sapiens, Leukocyte, read-out: Percentage of inhibition of IL-6 production
In short: (§1)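 Compound at 10 or 50 μM, given 2 h ahead of an overnight LPS, PMA or zymosan challenge, was tested on human PBL in RPMI with 10% FCS at 37 °C. Sandwich ELISA quantified supernatant cytokine.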

IL-8 = assay: Inhibition of IL-8 production by stimulated human peripheral blood leukocytes in vitro; conditions: Homo sapiens, Leukocyte, read-out: Percentage of inhibition of IL-8 production
In short: as §1

A549 = assay: Cytotoxicity assay (MTT), A549 cell line; conditions: 24 h
Procedure: (§2) To determine whether the anti-inflammatory activity of the test compounds was due to observed inhibition of cytokine production and inhibition of proliferation in vitro, and was not a consequence of cellular cytotoxicity, measurement of succinate dehydrogenase activity in living cells was performed. Cells were cultured for 24 h in RPM medium as described above at 37° C. the presence of the test compounds at concentrations of 50 μM and 12.5 μM. MTT [3-(4,5-dimethylthiazole-2-yl)-2,5-diphenyl tetrazolium bromide] (Promega, USA), a detection reagent, was then added and the cultures were incubated for 0.5-2 h. The amount of MTT-Formazan produced was determined using a spectrophotometer at 490 nm (Mosmann, J. Immunol. Methods, 1983, 65: 55-63).
(§3) The percentage of inhibition of cell growth was calculated using the following formula: % inhibition of cell growth=[…].

Hep G2 = assay: Cytotoxicity assay (MTT), Hep G2 cell line; conditions: 24 h
Procedure: as §2, §3

IL-1α = assay: Inhibition of IL-1 production by stimulated human peripheral blood leukocytes in vitro; conditions: Homo sapiens, Leukocyte, read-out: Percentage of inhibition of IL-1α production
TNF-α = assay: Inhibition of TNF-α production by stimulated human peripheral blood leukocytes in vitro; conditions: Homo sapiens, Leukocyte, read-out: Percentage of inhibition of TNF-α production
In short: as §1

Row | SMILES | inhibition at 10 µM (IL-6; LPS-stimulated PBL) | inhibition at 10 µM (IL-6; PMA-stimulated PBL) | inhibition at 10 µM (IL-6; zymosan-stimulated PBL) | inhibition at 50 µM (IL-6; LPS-stimulated PBL) | inhibition at 50 µM (IL-6; PMA-stimulated PBL) | inhibition at 50 µM (IL-6; zymosan-stimulated PBL) | inhibition at 10 µM (IL-8; LPS-stimulated PBL) | inhibition at 10 µM (IL-8; PMA-stimulated PBL) | inhibition at 10 µM (IL-8; zymosan-stimulated PBL) | inhibition at 50 µM (IL-8; LPS-stimulated PBL) | inhibition at 50 µM (IL-8; PMA-stimulated PBL) | inhibition at 50 µM (IL-8; zymosan-stimulated PBL) | Percentage of inhibition of cell growth (A549; 12.5 μM) | Percentage of inhibition of cell growth (A549; 50 μM) | Percentage of inhibition of cell growth (Hep G2; 12.5 μM) | Percentage of inhibition of cell growth (Hep G2; 50 μM) | inhibition at 10 µM (IL-1α; LPS-stimulated PBL) | inhibition at 10 µM (IL-1α; PMA-stimulated PBL) | inhibition at 10 µM (IL-1α; zymosan-stimulated PBL) | inhibition at 50 µM (IL-1α; LPS-stimulated PBL) | other results
1 | CC[C@H]1OC(=O)[C@H](C)[C@@H](O[C@H]2C[C@@](C)(OC)[C@@H](OC(=O)CCN3CC(C)CC(C)C3)[C@H](C)O2)[C@H](C)[C@@H](O[C@@H]2O[C@H](C)C[C@H](N(C)C)[C@H]2O)[C@](C)(OC)C[C@@H](C)C(=O)N[C@H](C)[C@@H](O)[C@]1(C)O (stereo partly shown) [Example 37] | 20% | 41% | 21% | 78% | 57% | 100% | 14% | 17% | 27% | 0% | 10% | 0% | 1% | 0% | 3% | 19% | 60% | 14% | 49% | 69% | inhibition at 50 µM (IL-1α; PMA-stimulated PBL): 25%; inhibition at 50 µM (IL-1α; zymosan-stimulated PBL): 98%; inhibition at 10 µM (TNF-α; LPS-stimulated PBL): 15%; inhibition at 10 µM (TNF-α; PMA-stimulated PBL): 28%; inhibition at 10 µM (TNF-α; zymosan-stimulated PBL): 17%; inhibition at 50 µM (TNF-α; LPS-stimulated PBL): 76%; inhibition at 50 µM (TNF-α; PMA-stimulated PBL): 45%; inhibition at 50 µM (TNF-α; zymosan-stimulated PBL): 96%
2 | CC[C@H]1OC(=O)[C@H](C)[C@@H](O[C@H]2C[C@@](C)(OC)[C@@H](OC(=O)CCNC3CC3)[C@H](C)O2)[C@H](C)[C@@H](O[C@@H]2O[C@H](C)C[C@H](N(C)C)[C@H]2O)[C@](C)(OC)C[C@@H](C)C(=O)N[C@H](C)[C@@H](O)[C@]1(C)O [Example 40] | 7% | 0% | 0% | 0% | 0% | 0% | 24% | 31% | 6% | 0% | 12% | 0% | 0% | 0% | 2% | 2% | 0% | 0% | 1% | 28% | inhibition at 50 µM (IL-1α; PMA-stimulated PBL): 0%; inhibition at 50 µM (IL-1α; zymosan-stimulated PBL): 55%; inhibition at 10 µM (TNF-α; LPS-stimulated PBL): 67%; inhibition at 10 µM (TNF-α; PMA-stimulated PBL): 55%; inhibition at 10 µM (TNF-α; zymosan-stimulated PBL): 60%; inhibition at 50 µM (TNF-α; LPS-stimulated PBL): 82%; inhibition at 50 µM (TNF-α; PMA-stimulated PBL): 77%; inhibition at 50 µM (TNF-α; zymosan-stimulated PBL): 76%
3 | CC[C@H]1OC(=O)[C@H](C)[C@@H](O[C@H]2C[C@@](C)(OC)[C@@H](OC(=O)CCN3CCCCCC3)[C@H](C)O2)[C@H](C)[C@@H](O[C@@H]2O[C@H](C)C[C@H](N(C)C)[C@H]2O)[C@](C)(OC)C[C@@H](C)C(=O)N[C@H](C)[C@@H](O)[C@]1(C)O [Example 41] | 25% | 59% | 36% | 92% | 79% | 100% | 29% | 10% | 19% | 87% | 42% | 63% | 1% | 0% | 7% | 3% | 79% | 52% | 80% | 84% | inhibition at 50 µM (IL-1α; PMA-stimulated PBL): 100%; inhibition at 50 µM (IL-1α; zymosan-stimulated PBL): 100%; inhibition at 10 µM (TNF-α; LPS-stimulated PBL): 39%; inhibition at 10 µM (TNF-α; PMA-stimulated PBL): 30%; inhibition at 10 µM (TNF-α; zymosan-stimulated PBL): 27%; inhibition at 50 µM (TNF-α; LPS-stimulated PBL): 95%; inhibition at 50 µM (TNF-α; PMA-stimulated PBL): 70%; inhibition at 50 µM (TNF-α; zymosan-stimulated PBL): 99%
4 | CC[C@H]1OC(=O)[C@H](C)[C@@H](OC2C[C@@](C)(OC)[C@@H](OC(=O)CCN3CCNCC3)[C@H](C)O2)[C@H](C)[C@@H](OC2O[C@H](C)C[C@H](N(C)C)[C@H]2O)[C@](C)(OC)C[C@@H](C)C(=O)[C@H](C)[C@@H](O)[C@]1(C)O (stereo partly shown) [Example 50, 4″-O-(3-piperazin-1-yl-propionyl)-6-O-methylerithromycin A] | 0% | 0% | 52% | 54% | 23% | 96% | 0% | 0% | 0% | 61% | 100% | 70% | 10% | 10% | 0% | 8% | 19% | 0% | 81% | 23% | inhibition at 50 µM (IL-1α; PMA-stimulated PBL): 44%; inhibition at 50 µM (IL-1α; zymosan-stimulated PBL): 69%; inhibition at 10 µM (TNF-α; LPS-stimulated PBL): 10%; inhibition at 10 µM (TNF-α; PMA-stimulated PBL): 0%; inhibition at 10 µM (TNF-α; zymosan-stimulated PBL): 36%; inhibition at 50 µM (TNF-α; LPS-stimulated PBL): 100%; inhibition at 50 µM (TNF-α; PMA-stimulated PBL): 100%; inhibition at 50 µM (TNF-α; zymosan-stimulated PBL): 98%
